Experimental findings from patent EP0936867B1, “BENZOYLPHENYLUREA INSECTICIDES AND METHODS OF USING CERTAIN BENZOYLPHENYLUREAS TO CONTROL COCKROACHES, ANTS, FLEAS, AND TERMITES” (Dow AgroSciences LLC, priority 1996, dated 1998) are described below.

A value given as a limit tells only on which side of the number the result lay.

Common to all, as to format: in vivo
The test system of data set [1] is German cockroach 2nd instars (Blattella germanica). The experiment in a line: Continuous, low-dose ingestion exposure (treated cornmeal).
The next data set concerns Daphnia. In words: Activity against Daphnia, 48 hr exposure to treated water. The source says:
48 hr exposure to treated water

The subject of data set [2] is Subterranean Termite (Reticulitermes flavipes). The experiment in a line: Limited exposure (7 days), mortality determined at 14, 28, 42 and 56 days. The text has this:
(§1) Subterranean Termite (Reticulitermes flavipes)
Limited exposure (7 days) with mortality determined at 14, 28, 42, and 56 […]

Data set [3] relates to Red Imported Fire Ant (RIFA) (Solenopsis invicta). In words: Laboratory ant bait study, 3-4 day exposure to bait, brood reduction. The method, then:
(§2) Laboratory ant bait studies were carried out with Red Imported Fire Ant (RIFA) (Solenopsis invicta) and Pharaoh Ant (Monomorium pharaonis). Chitin synthesis inhibitors, such as the compounds of the invention, control ants by killing the molting larvae and/or pupae and potentially preventing the hatching of eggs. Because adult workers are not affected, control is measured by effects on the brood. The studies involved 3-4 day exposure to bait. These limited exposure studies more accurately represent real world bait availability than continuous exposure.

The test system of data set [4] is Subterranean Termite (Reticulitermes flavipes). The experiment in a line: Continuous exposure (56 days) to treated paper.
From the text: as §1
Continuous exposure (56 days) to treated paper Rates: 0.78, 3.12, 12.5, 50, 200 ppm

For data set [5], the system named is Cat Flea (Ctenocephalides fells). In words: Continuous exposure of larvae to treated media, impact on subsequent adult emergence. The source says:
Cat Flea (Ctenocephalides fells)
Continuous exposure of larvae to treated media, impact on subsequent adult emergence Rates: 0.1, 1.0, 10, 100, 1000 ppm

The test system of data set [6] is German cockroach 2nd instars (Blattella germanica). The experiment in a line: Limited ingestion exposure (48 hr) to treated cornmeal. The text has this:
German cockroach 2nd instars (Blattella germanica)
Limited ingestion exposure (48 hr) to treated cornmeal Rates: 1, 10, 100, 1000, 10000 ppm

For data set [7], the system named is Pharaoh Ant (Monomorium pharaonis). The experiment in a line: Laboratory ant bait study, 3-4 day exposure to bait, brood reduction. As to conditions: concentration tested 0.1%. The method, then: as §2

For the compound `CCN(C(=O)Nc1cc(Cl)c(OC(F)(F)C(F)C(F)(F)F)c(Cl)c1F)C(=O)c1c(F)cccc1F` (stereo not drawn) [Compound 3, N-[3,5-Dichloro-2-fluoro-4-(1,1,2,3,3,3-hexafluoropropoxy)phenyl]-N'-(2,6-difluorobenzoyl)-N'-ethyl urea], in data set [1], the “LC50 (ppm) 21 days” value worked out at 8.0 ppm and the “LC50 (ppm) 42 days” value was 1.5 ppm. In addition, the “LC50 (ppb) in water” value in the data set on Daphnia is on record as above 100 ppb.
For the compound `O=C(NC(=O)c1c(F)cccc1F)Nc1cc(Cl)c(OC(F)(F)C(F)F)c(Cl)c1` [hexaflumuron, reference compound], in data set [1], the “LC50 (ppm) 21 days” value is given as above 200 ppm and the “LC50 (ppm) 42 days” value is given as above 200 ppm. Also, the “LT50 (days) for 10000 ppm treatment” value in data set [2] is recorded as 32.9 days. In data set [3] (concentration tested 0.25%), the “Time to Achieve 50% Brood Reduction” value was 4 wks and the “Time to Achieve 90% Brood Reduction” value worked out at 10 wks. For the same compound, the “LC50 (ppb) in water” value in the data set on Daphnia stood at 68.1 ppb. Further, in data set [4], the “LT50 (days) for 200 ppm trt” value is on record as 33.8 days, the “LC50 (ppm) 35 days” value is reported as above 200 ppm and the “LC50 (ppm) 56 days” value came to 1.3 ppm. Also, in data set [5], the “LC50 (ppm)” value turned out to be 65.7 ppm and the “LC90 (ppm)” value turned out to be 333.5 ppm. In addition, in data set [6], the “LC50 (ppm) 21 days” value is on record as > 10,000 ppm and the “LC50 (ppm) 42 days” value is > 10,000 ppm.
`O=C(NC(=O)c1c(F)cccc1F)Nc1cc(Cl)c(OC(F)(F)C(F)C(F)(F)F)c(Cl)c1F` (stereo not drawn) [Compound 1]: in data set [1], the “LC50 (ppm) 21 days” value was below 2.2 ppm and the “LC50 (ppm) 42 days” value is below 0.78 ppm. Also, the “LT50 (days) for 10000 ppm treatment” value in data set [2] was 23.7 days. In addition, in data set [3] (concentration tested 0.1%), the “Time to Achieve 50% Brood Reduction” value is on record as 2 wks and the “Time to Achieve 90% Brood Reduction” value is reported as 3 wks. Besides, in data set [7] (3-4 day exposure to bait), the “Time to Achieve 50% Brood Reduction” value was 4 wks. Moreover, the “Percent brood reduction achieved at end of study” value in data set [7] (at 13 wks) was 70%. The “LC50 (ppb) in water” value with Daphnia stood at 5.0 ppb. For the same compound, in data set [4], the “LT50 (days) for 200 ppm trt” value is 27.6 days, the “LC50 (ppm) 35 days” value was determined as 31.2 ppm and the “LC50 (ppm) 56 days” value is reported as below 0.78 ppm. For the same compound, in data set [5], the “LC50 (ppm)” value was 2.8 ppm and the “LC90 (ppm)” value was 22 ppm. For the same compound, in data set [6], the “LC50 (ppm) 21 days” value is below 22.2 ppm and the “LC50 (ppm) 42 days” value is reported as below 9.1 ppm.
`CCN(C(=O)NC(=O)c1c(F)cccc1F)c1cc(Cl)c(OC(F)(F)C(F)C(F)(F)F)c(Cl)c1F` (stereo not drawn) [Compound 2, N-[3,5-Dichloro-2-fluoro-4-(1,1,2,3,3,3-hexafluoropropoxy)phenyl]-N'-(2,6-difluorobenzoyl)-N-ethylurea]: in data set [1], the “LC50 (ppm) 21 days” value is 0.35 ppm and the “LC50 (ppm) 42 days” value is 0.26 ppm. In addition, in data set [4], the “LC50 (ppm) 35 days” value is given as below 0.78 ppm and the “LC50 (ppm) 56 days” value was below 0.78 ppm. In data set [5], the “LC50 (ppm)” value is 12.7 ppm and the “LC90 (ppm)” value was found to be 18.6 ppm. For the same compound, in data set [6], the “LC50 (ppm) 21 days” value amounted to 21.1 ppm and the “LC50 (ppm) 42 days” value turned out to be 12.8 ppm.
